# Earlier results as cited in patent EP4585059A1, “EFFERVESCENT POUCHED PRODUCT” (Nicoventures Trading Limited, priority 2024, dated 2025).
# Tests used:
# [1] = water / aqueous environment (e.g., saliva)
# [2] = Values obtained from PubChem or calculated
solubility in water [1],Compound,log(P)* [2]
water-soluble,"CC(/C=C/C=C(C)/C=C/C(=O)O)=C\C=C\C=C(C)\C=C\C=C(C)\C=C\C(=O)O (stereo in doubt) [norbixin, (2E,4E,6E,8E,10E,12E,14E,16E,18E)-4,8,13,17-tetramethylicosa-2,4,6,8,10,12,14,16,18-nonaenedioic acid]",–
insoluble in water,"COC(=O)/C=C/C(C)=C\C=C\C(C)=C\C=C\C=C(C)\C=C\C=C(C)\C=C\C(=O)O [bixin, (2E,4E,6E,8E,10E,12E,14E,16Z,18E)-20-methoxy-4,8,13,17-tetramethyl-20-oxoicosa-2,4,6,8,10,12,14,16,18-nonaenoic acid]",–
–,CC(C)[C@@H]1CC[C@@H](C)C[C@H]1OC(=O)CCC(=O)O [monomenthyl succinate],3
–,ethyl benzoic acid,2.9
–,isopropyl benzoic acid,3.5

Compound,solubility in water [1],log(P)* [2]
"C=C(C)[C@@H]1CCC(C)=C[C@H]1c1c(O)cc(CCCCC)cc1O [CBD, cannabidiol]",insoluble,–
